Patent publication US10030027B2, “Soluble guanylate cyclase stimulators” (MERCK SHARP & DOHME CORP., priority 2015, dated 2018)

Columns and labels:
[1] = target: sGC α1/β1 heterodimer (Homo sapiens (Human), UniProt Q02108+Q02153); assay: Cell-based sGC functional assay (cyclic GMP assay for sGC activator: CASA assay); conditions: CHO-K1/sGC cells; for Emax: CHO-K1, activity expressed as percentage of compound A (standard), read-out: % Activation; for EC50: inflection point, 4P fit, read-out: IP
In short: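 CHO-K1 cells stably expressing human sGC α1/β1 were pre-incubated 30 min at 25° C with or without 1 μM DETA-NO, then exposed to compound for 1 hr at 37° C with 0.5 mM IBMX and 2.5% DMSO final. Intracellular cGMP was measured by HTRF, expressed as % of reference sGC-HDA maximum; inflection point and maximum fold induction came from 4-parameter fits.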

[2] = target: human recombinant sGC enzyme (Homo sapiens (Human), UniProt Q02108+Q02153); assay: Size Exclusion Chromatography (SEC) competition binding assay using [3H] Ex-77B as the radioligand; conditions: [3H] Ex-77B radioligand, 24 hours at 37° C.
In short: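 Recombinant human sGC binding measured by competition against tritiated Ex-77B radioligand, with non-specific binding defined by 1 μM unlabeled Ex-77B.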

Structure (SMILES) | Emax [1] [%] | EC50 [1] [nM] | Ki [2] [nM]
CC(C)(CCc1coc(C2(C)C(=O)Nc3nc(-c4nn(Cc5cccc(F)c5)c5cc(F)ccc45)nc(N)c32)n1)C(=O)O (stereo not drawn) [Example 197B, 4-(2-{4-amino-2-[6-fluoro-1-(3-fluorobenzyl)-1H-indazol-3-yl]-5-methyl-6-oxo-6,7-dihydro-5H-pyrrolo[2,3-d]pyrimidin-5-yl}-1,3-oxazol-4-yl)-2,2-dimethyl-butanoic acid] | 106 | 125 | 0.162
Cc1oc(C2(C)C(=O)Nc3nc(-c4nn(Cc5cccc(F)c5)c5cc(F)ccc45)nc(N)c32)nc1CC(C)(C)C(=O)O (stereo not drawn) [Example 198B, 3-(2-{4-amino-2-[6-fluoro-1-(3-fluorobenzyl)-1H-indazol-3-yl]-5-methyl-6-oxo-6,7-dihydro-5H-pyrrolo[2,3-d]pyrimidin-5-yl}-5-methyl-1,3 - oxazol-4-yl)-2,2-dimethyl-propanoic acid] | 134 | 1070 | 0.107
CC(C)(Cc1coc(C2(C)C(=O)Nc3nc(-c4nn(Cc5cccc(F)c5F)c5cc(F)ccc45)nc(N)c32)n1)C(=O)O (stereo not drawn) [Example 200A, 3-(2-{4-amino-2-[1-(2,3-difluoro-benzyl)-6-fluoro-1H-indazol-3-yl]-5-methyl-6-oxo-6,7-dihydro-5H-pyrrolo[2,3-d]pyrimidin-5-yl}-1,3-oxazol-4-yl)-2,2-dimethyl-propanoic acid] | 120 | 220 | 0.052
CC1(c2nc(CC(=O)O)co2)C(=O)Nc2nc(-c3nn(Cc4ccccc4F)c4ccccc34)nc(N)c21 (stereo not drawn) [Example 203A, (2-{4-amino-2-[1-(2-fluorobenzyl)-1H-indazol-3-yl]-5-methyl-6-oxo-6,7-dihydro-5H-pyrrolo[2,3-d]pyrimidin-5-yl}-1,3-oxazol-4-yl)acetic acid] | 122 | 330 | 0.071

Molecules with a lower EC50 [1], results first:

Emax [1] [%] | EC50 [1] [nM] | Ki [2] [nM] | Structure (SMILES)
128 | 73 | 0.041 | CC(C)(Cc1csc([C@]2(C)C(=O)Nc3nc(-c4nn(Cc5cccc(F)c5)c5cc(F)ccc45)nc(N)c32)n1)C(=O)O [Example 194A, (S)-3-(2-{4-amino-2-[6-fluoro-1-(3-fluorobenzyl)-1H-indazol-3-yl]-5-methyl-6-oxo-6,7-dihydro-5H-pyrrolo[2,3-d]pyrimidin-5-yl}-1,3-thiazol-4-yl)-2,2-dimethyl-propanoic acid]
108 | 66 | 0.07 | CC(C)(Cc1csc([C@]2(C)C(=O)Nc3nc(-c4nn(Cc5cccc(F)c5F)c5cc(F)ccc45)nc(N)c32)n1)C(=O)O [Example 199A, (S)-3-(2-{4-amino-2-[1-(2,3-difluorobenzyl)-6-fluoro-1H-indazol-3-yl]-5-methyl-6-oxo-6,7-dihydro-5H-pyrrolo[2,3-d]pyrimidin-5-yl}-1,3-thiazol-4-yl)-2,2-dimethyl-propanoic acid]
90.3 | 54 | 0.468 | CC(C)(CCc1csc(C2(C)C(=O)Nc3nc(-c4nn(Cc5cccc(F)c5)c5cc(F)ccc45)nc(N)c32)n1)C(=O)O (stereo not drawn) [Example 196A, 4-(2-{4-amino-2-[6-fluoro-1-(3-fluorobenzyl)-1H-indazol-3-yl]-5-methyl-6-oxo-6,7-dihydro-5H-pyrrolo[2,3-d]pyrimidin-5-yl}-1,3-thiazol-4-yl)-2,2-dimethyl-butanoic acid]
91.2 | 39 | 0.151 | CC(C)(Cc1csc([C@]2(C)C(=O)Nc3nc(-c4nn(CC5CCCCC5)c5cc(F)ccc45)nc(N)c32)n1)C(=O)O [Example 201A, (S)-3-(2-{4-amino-2-[1-(cyclohexyl-methyl)-6-fluoro-1H-indazol-3-yl]-5-methyl-6-oxo-6,7-dihydro-5H-pyrrolo[2,3-d]pyrimidin-5-yl}-1,3-thiazol-4-yl)-2,2-dimethyl-propanoic acid]
